For this assay, the target named is T1, hepatic glucose-6-phosphatase (G6Pase).
T1 construct: gene G6pc1; native, microsomal fraction from livers of starved Wistar rats; not purified; with Glucose-6-phosphate exchanger SLC37A4
Nature of the assay: colorimetric phosphate release assay, rat liver microsomes. The note with it: 80 mM glucose-6-phosphate, 40 mM imidazole, 250 mM sucrose, pH 7, 20 °C, 20 min; positive control. It counts as biochemical.

Values after ≈ are worked out from the molar mass of the structure shown.

A word on the IC50: it is the concentration at which inhibition is half-maximal. Higher therefore signals a need for much substance.

Compound `O=C(/C=C/c1ccc(O)c(O)c1)O[C@@H]1C[C@](O)(C(=O)O)C[C@@H](O)[C@H]1O` [chlorogenic acid] returned an IC50 of 122.5 µg/mL (≈ 346 µM).

For the origin of these results see PMC10934653, “Identification of Hypoglycemic Glycolipids from Ipomoea murucoides by Affinity-Directed Fractionation, In Vitro, In Silico and Dynamic Light Scattering Analysis” (Plants, 2024).
